Reference: PubChem BioAssay (NCI)
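Tested at 5 concentrations; 48 h exposure; 96-well plates; endpoints linearly interpolated, else capped at highest concentration. Here, GI50 denotes the concentration required for 50% inhibition of growth. TGI: total growth inhibition.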

Legend:
Experiment in all cases: growth of human tumour cells (NCI), 48 h
[1] = tested on: KM12 colon
[2] = tested on: SK-OV-3 ovarian
[3] = tested on: SF-295 CNS
[4] = tested on: SN12C renal
[5] = tested on: SK-MEL-2 melanoma
[6] = tested on: HCT-116 colon
[7] = tested on: NCI-H23 lung
[8] = tested on: SNB-19 CNS
[9] = tested on: 786-0 renal
[10] = tested on: NCI-H522 lung

## Clc1ccc2nc(CI)c(CI)nc2c1
[1]
  GI50: 6.07 µM
  TGI: 17.6 µM
[2]
  GI50: 23.1 µM
  TGI: > 58 µM
[3]
  GI50: 15.4 µM
  TGI: 36.8 µM
[4]
  GI50: 2.94 µM
  TGI: 8.62 µM
[5]
  GI50: 6.45 µM
  TGI: > 32.6 µM
[6]
  GI50: 2.53 µM
[7]
  GI50: 7.37 µM
  TGI: 25.8 µM
[8]
  GI50: 33.2 µM
  TGI: > 59.4 µM
[9]
  GI50: 4.07 µM

## Cc1nc2ccccn2c1NC(=O)NNC(=S)Nc1ccc(F)cc1
[1]
  GI50: > 100 µM
  TGI: > 100 µM
[2]
  GI50: > 100 µM
  TGI: > 100 µM
[3]
  GI50: > 100 µM
  TGI: > 100 µM
[4]
  GI50: > 100 µM
  TGI: > 100 µM
[5]
  GI50: > 100 µM
  TGI: > 100 µM
[6]
  GI50: > 100 µM
  TGI: > 100 µM
[10]
  GI50: > 100 µM
  TGI: > 100 µM
[8]
  GI50: > 100 µM
  TGI: > 100 µM
[9]
  GI50: > 100 µM
  TGI: > 100 µM

## COc1cc(C(=O)O[C@H](C(=O)NCCN(C)CCNC(=O)[C@@H](OC(=O)c2cc(OC)cc3c(C)cccc23)[C@]2(C)CO2)[C@]2(C)CO2)c2cccc(C)c2c1
[1]
  GI50: 0.0549 µM
  TGI: 0.465 µM
[2]
  GI50: 0.575 µM
  TGI: 3.6 µM
[3]
  GI50: < 0.0337 µM
  TGI: 0.182 µM
[4]
  GI50: < 0.0308 µM
  TGI: 0.3 µM
[5]
  GI50: 0.253 µM
  TGI: > 100 µM
[6]
  GI50: 0.0751 µM
  TGI: 2.93 µM
[7]
  GI50: < 0.01 µM
  TGI: 0.0137 µM
[8]
  GI50: 0.265 µM
  TGI: 1.18 µM
[9]
  TGI: 0.179 µM

## CC(C(=O)c1ccccc1)C1(O)C(=O)Nc2ccc(Cl)cc21 (centres undefined)
[1]
  TGI: > 100 µM
[2]
  TGI: > 100 µM
[3]
  TGI: > 100 µM
[4]
  TGI: > 100 µM
[5]
  TGI: > 100 µM
[6]
  TGI: > 100 µM
[7]
  TGI: > 100 µM
[8]
  TGI: > 100 µM
[9]
  TGI: > 100 µM

## O=C1C(=O)c2ccccc2C(O)=C1CCCc1ccc(C2CCCCC2)cc1
[1]
  GI50: 4.16 µM
  TGI: 17.9 µM
[2]
  GI50: 10.9 µM
  TGI: 59.7 µM
[3]
  GI50: 1.89 µM
  TGI: 6.36 µM
[4]
  GI50: 6.35 µM
  TGI: > 100 µM
[6]
  GI50: 2.01 µM
  TGI: 14.3 µM
[7]
  GI50: 4.14 µM
  TGI: 61.4 µM
[10]
  GI50: 7.69 µM
  TGI: > 100 µM
[8]
  GI50: 5.66 µM
  TGI: > 100 µM
[9]
  GI50: 3.73 µM
  TGI: 43.5 µM

## Cc1cc(C)c(C(=O)O)c(SSc2cc(C)cc(C)c2C(=O)O)c1
[1]
  TGI: > 100 µM
[2]
  TGI: > 100 µM
[3]
  TGI: > 100 µM
[4]
  TGI: > 100 µM
[5]
  TGI: > 100 µM
[7]
  TGI: > 100 µM
[10]
  TGI: > 100 µM
[8]
  TGI: > 100 µM
[9]
  TGI: > 100 µM

## CC1(C)OC(=O)C(C#N)=C1C[n+]1ccccc1
[1]
  TGI: > 10 µM
[2]
  TGI: > 10 µM
[3]
  TGI: > 10 µM
[4]
  TGI: > 10 µM
[5]
  TGI: > 10 µM
[7]
  TGI: > 10 µM
[10]
  TGI: > 10 µM
[8]
  TGI: > 10 µM
[9]
  TGI: > 10 µM

## CCOC(=O)C1=C(C)N(NC(N)=O)C2(N)N(NC(N)=O)C(C)=C(C(=O)OCC)C12C(=O)OCC (centres undefined)
[1]
  TGI: > 100 µM
[2]
  TGI: > 100 µM
[3]
  TGI: > 100 µM
[4]
  TGI: > 100 µM
[5]
  TGI: > 100 µM
[6]
  TGI: > 100 µM
[10]
  TGI: > 100 µM
[8]
  TGI: > 100 µM
[9]
  TGI: > 100 µM

## COc1ccc2oc(-c3ccc(OC)c(OC)c3OC)cc(=O)c2c1
[2]
  TGI: > 100 µM
[3]
  TGI: > 100 µM
[4]
  TGI: > 100 µM
[5]
  TGI: > 100 µM
[6]
  TGI: > 100 µM
[7]
  TGI: > 100 µM
[10]
  TGI: 68.3 µM
[8]
  TGI: > 100 µM
[9]
  TGI: > 100 µM

## COC1=CC(c2ccc[nH]2)=N/C1=C\c1[nH]c(C)c(CC(=O)OCc2ccccc2)c1C
[1]
  GI50: 0.272 µM
  TGI: 2.28 µM
[2]
  GI50: 0.457 µM
  TGI: 2.77 µM
[3]
  GI50: 0.252 µM
  TGI: 1.1 µM
[5]
  GI50: 0.198 µM
  TGI: 0.51 µM
[6]
  GI50: 0.219 µM
  TGI: 1.05 µM
[7]
  GI50: 0.399 µM
  TGI: 2.98 µM
[10]
  GI50: 0.273 µM
  TGI: 1.86 µM
[8]
  GI50: 0.671 µM
  TGI: 12.4 µM
[9]
  GI50: 0.299 µM
  TGI: 1.19 µM

## COc1cc(C(C)c2cc3c(cc2OCCNC(=O)COc2cc4c(cc2C(C)c2cc(OC)c(OC)c(OC)c2)OCO4)OCO3)cc(OC)c1OC (centres undefined)
[1]
  TGI: > 100 µM
[3]
  TGI: > 100 µM
[4]
  TGI: > 100 µM
[5]
  TGI: > 100 µM
[6]
  TGI: > 100 µM
[7]
  TGI: > 100 µM
[10]
  TGI: 92.6 µM
[8]
  TGI: > 100 µM
[9]
  TGI: > 100 µM

## O=C1CNC(=O)c2[nH]cnc2N1
[1]
  TGI: > 100 µM
[2]
  TGI: > 100 µM
[3]
  TGI: > 100 µM
[4]
  TGI: > 100 µM
[7]
  TGI: > 100 µM
[8]
  TGI: > 100 µM
[9]
  TGI: > 100 µM

## C=C1C(=O)O[C@H]2[C@H]1CC/C(Cn1cc(-c3ccc(F)cc3)nn1)=C\CC[C@@]1(C)O[C@@H]21
[1]
  GI50: 1.7 µM
  TGI: 3.43 µM
[2]
  GI50: 9.78 µM
  TGI: 21.4 µM
[3]
  GI50: 5.73 µM
  TGI: 19.1 µM
[4]
  GI50: 1.64 µM
  TGI: 3.79 µM
[5]
  GI50: 1.83 µM
  TGI: 3.94 µM
[6]
  GI50: 0.295 µM
  TGI: 1.21 µM
[7]
  GI50: 1.78 µM
  TGI: 3.71 µM
[8]
  GI50: 3.39 µM
  TGI: 13 µM
[9]
  GI50: 1.06 µM
  TGI: 2.36 µM

## Nc1ccc(COC(O)CN2CCCCC2)cc1[N+](=O)[O-] (centres undefined)
[1]
  TGI: > 100 µM
[3]
  TGI: > 100 µM
[4]
  TGI: > 100 µM
[5]
  TGI: > 100 µM
[6]
  TGI: > 100 µM
[7]
  TGI: > 100 µM
[10]
  TGI: > 100 µM
[8]
  TGI: > 100 µM
[9]
  TGI: > 100 µM

## O=C(Nc1ccccc1-c1nn(CN2CCNCC2)c(=S)n(CN2CCNCC2)c1=O)C(F)(F)F
[1]
  TGI: 40.7 µM
[2]
  TGI: 51.4 µM
[3]
  TGI: 76.5 µM
[4]
  TGI: 46.1 µM
[5]
  TGI: 33.5 µM
[6]
  TGI: 32.5 µM
[7]
  TGI: 32.6 µM
[8]
  TGI: 48.1 µM
[9]
  TGI: 35.1 µM

## COc1ccc2c(c1)NC1(O)c3ccccc3C(=O)C21O (centres undefined)
[1]
  TGI: > 100 µM
[2]
  TGI: > 100 µM
[3]
  TGI: > 100 µM
[4]
  TGI: > 100 µM
[6]
  TGI: > 100 µM
[7]
  TGI: > 100 µM
[10]
  TGI: > 100 µM
[8]
  TGI: > 100 µM
[9]
  TGI: > 100 µM

## CC(=O)OC12c3ccccc3-c3ccccc3C1C(C(=O)O)C2C(=O)O (centres undefined)
[1]
  TGI: > 10 µM
[2]
  TGI: > 10 µM
[3]
  TGI: > 10 µM
[4]
  TGI: > 10 µM
[5]
  TGI: > 10 µM
[7]
  TGI: > 10 µM
[10]
  TGI: > 10 µM
[8]
  TGI: > 10 µM
[9]
  TGI: > 10 µM

## C/C(CC(=O)Nc1ccccc1C)=N/NS(=O)(=O)c1ccc(C)cc1
[1]
  TGI: > 100 µM
[2]
  TGI: > 100 µM
[3]
  TGI: > 100 µM
[5]
  TGI: > 100 µM
[6]
  TGI: > 100 µM
[7]
  TGI: > 100 µM
[10]
  TGI: > 100 µM
[9]
  TGI: > 100 µM

## COc1cc2c(cc1OC)C1Cc3ccc(OC)c(OC)c3C[N+]1([O-])CC2 (centres undefined)
[1]
  TGI: > 100 µM
[3]
  TGI: > 100 µM
[4]
  TGI: > 100 µM
[5]
  TGI: > 100 µM
[6]
  TGI: > 100 µM
[7]
  TGI: > 100 µM
[10]
  TGI: > 100 µM
[8]
  TGI: > 100 µM
[9]
  TGI: > 100 µM
